# Laboratory results from patent publication US20020137929A1, “1 - (3-heterocyclylphenyl) isothiourea, -isourea, -guanidine and -amidine herbicidal agents” (Intellectual Property Department, BASF Aktiengesellschaft, priority 1998, published 2002).
# Legend:
# CYPSE (Flatsedge) = assay: Preemergence weed control under flooded paddy conditions; format: in vivo, Cyperus serotinus; details: rated 3-4 weeks after treatment
# Summary of the method: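 Using flooded silt loam (water 1.5 to 3 cm deep), seeds sown in the top 0.5 cm were exposed preemergence to compound pipetted into the flood at about 0.0313 to 0.500 kg/ha. Effects were scored 0-9 by eye three to four weeks later.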
# AMBEL (Ragweed, Common) [1] = assay: Postemergence herbicidal evaluation; format: in vivo, Ambrosia artemisifolia; details: postemergence
# Summary of the method: (§1)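 Compound is applied as a foliar spray to seedlings about two weeks old, formulated in equal parts acetone and water with 0.5% TWEEN 20 and delivered at 40 psi to give about 0.0156–0.500 kg per hectare. Injury is rated visually 0–9 after four to five weeks.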
# AMBEL (Ragweed, Common) [2] = assay: Preemergence herbicidal evaluation; format: in vivo, Ambrosia artemisifolia; details: rated 4-5 weeks after treatment
# Summary of the method: (§2)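 Seeds were mixed with potting soil and planted on about one inch of soil, then sprayed with test compound in aqueous acetone at about 0.0156 to 0.500 kg per hectare. Plants grew under standard greenhouse care and were visually rated 0-9 against untreated controls 4-5 weeks post-treatment.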
# ORYSAT (Rice, Tebonnet) = assay: Postemergence herbicidal evaluation; format: in vivo, Oryza sativa, (L.) Tebonnet; details: postemergence
# Summary of the method: as §1
# ZEAMX (Corn, Field) = assay: Postemergence herbicidal evaluation; format: in vivo, Zea mays; details: postemergence
# Summary of the method: as §1
# [3] = tested on: CHEAL (Lambsquarters, Common); assay: Postemergence herbicidal evaluation; format: in vivo, Chenopodium album; details: postemergence
# Summary of the method: as §1
# [4] = tested on: GLXMAW (Soybean, Williams); assay: Postemergence herbicidal evaluation; format: in vivo, Glycine max, (L.) Merr. cv Williams; details: postemergence
# Summary of the method: as §1
# GALAP (Galium) = assay: Preemergence herbicidal evaluation; format: in vivo, Galium aparine; details: rated 4-5 weeks after treatment
# Summary of the method: as §2
# [5] = tested on: CHEAL (Lambsquarters, Common); assay: Preemergence herbicidal evaluation; format: in vivo, Chenopodium album; details: rated 4-5 weeks after treatment
# Summary of the method: as §2
# ECHCG (Barnyardgrass) = assay: Postemergence herbicidal evaluation; format: in vivo, Echinochloa crus-galli; details: postemergence
# Summary of the method: as §1
# CASOB (Sicklepod) = assay: Preemergence herbicidal evaluation; format: in vivo, Cassia obtusifolia; details: rated 4-5 weeks after treatment
# Summary of the method: as §2
# ABUTH (Velvetleaf) = assay: Postemergence herbicidal evaluation; format: in vivo, Abutilon theophrasti; details: postemergence
# Summary of the method: as §1
# [6] = rate 0.0313 kg/ha, rating scale 0-9
# [7] = rate 0.0625 kg/ha, rating scale 0-9
# [8] = rate 0.1250 kg/ha, rating scale 0-9
# [9] = rate 0.2500 kg/ha, rating scale 0-9
smiles,measurement,setting,value
"CCN1C(=O)CSC1=Nc1cc(-n2c(=O)cc(C(F)(F)F)n(C)c2=O)c(F)cc1Cl [Compound 159, 3-{4-Chloro-5-[(3-ethyl-4-oxo-2-thiazolidinyl-idene)amino]-2-fluorophenyl}-1-methyl-6-(trifluoromethyl)-2,4(1H,3H)-pyrimidinedione]","herbicidal effect rating, CYPSE",CYPSE (Flatsedge); 0.0625 kg/ha,0.0
same,"herbicidal effect rating, CYPSE",CYPSE (Flatsedge); 0.1250 kg/ha,0.0
same,Herbicidal rating AMBEL,"AMBEL (Ragweed, Common) [1]; rate 0.0156 kg/ha",4.0
same,Herbicidal rating AMBEL,"AMBEL (Ragweed, Common) [1]; rate 0.0313 kg/ha",7.0
same,Herbicidal rating AMBEL,"AMBEL (Ragweed, Common) [1]; rate 0.0625 kg/ha",7.0
same,Preemergence herbicidal rating AMBEL,"AMBEL (Ragweed, Common) [2]; 0.0156 kg/ha",1.0
same,Preemergence herbicidal rating AMBEL,"AMBEL (Ragweed, Common) [2]; 0.0313 kg/ha",3.0
same,Preemergence herbicidal rating AMBEL,"AMBEL (Ragweed, Common) [2]; 0.0625 kg/ha",4.0
same,Preemergence herbicidal rating AMBEL,"AMBEL (Ragweed, Common) [2]; 0.1250 kg/ha",6.0
same,Preemergence herbicidal rating AMBEL,"AMBEL (Ragweed, Common) [2]; 0.2500 kg/ha",8.0
same,Herbicidal rating ORYSAT,"ORYSAT (Rice, Tebonnet); rate 0.0156 kg/ha",1.5
same,Herbicidal rating ORYSAT,"ORYSAT (Rice, Tebonnet); rate 0.0313 kg/ha",2.0
same,Herbicidal rating ORYSAT,"ORYSAT (Rice, Tebonnet); rate 0.0625 kg/ha",2.0
same,Herbicidal rating ZEAMX,"ZEAMX (Corn, Field); rate 0.0156 kg/ha",5.0
same,Herbicidal rating ZEAMX,"ZEAMX (Corn, Field); rate 0.0313 kg/ha",6.5
same,Herbicidal rating ZEAMX,"ZEAMX (Corn, Field); rate 0.0625 kg/ha",7.0
same,Herbicidal rating CHEAL,[3]; rate 0.0156 kg/ha,3.0
same,Herbicidal rating CHEAL,[3]; rate 0.0313 kg/ha,4.0
same,Herbicidal rating CHEAL,[3]; rate 0.0625 kg/ha,5.0
same,Herbicidal rating GLXMAW,[4]; rate 0.0156 kg/ha,5.0
same,Herbicidal rating GLXMAW,[4]; rate 0.0313 kg/ha,5.5
same,Herbicidal rating GLXMAW,[4]; rate 0.0625 kg/ha,7.0
same,Preemergence herbicidal rating GALAP,GALAP (Galium); 0.0156 kg/ha,0.0
same,Preemergence herbicidal rating GALAP,GALAP (Galium); 0.0313 kg/ha,0.0
same,Preemergence herbicidal rating GALAP,GALAP (Galium); 0.0625 kg/ha,1.0
same,Preemergence herbicidal rating GALAP,GALAP (Galium); 0.1250 kg/ha,5.0
same,Preemergence herbicidal rating GALAP,GALAP (Galium); 0.2500 kg/ha,5.0
same,Preemergence herbicidal rating CHEAL,[5]; 0.0156 kg/ha,7.0
same,Preemergence herbicidal rating CHEAL,[5]; 0.0313 kg/ha,9.0
same,Preemergence herbicidal rating CHEAL,[5]; 0.0625 kg/ha,8.0
same,Preemergence herbicidal rating CHEAL,[5]; 0.1250 kg/ha,9.0
same,Preemergence herbicidal rating CHEAL,[5]; 0.2500 kg/ha,9.0
same,Herbicidal rating ECHCG,ECHCG (Barnyardgrass); rate 0.0156 kg/ha,2.0
same,Herbicidal rating ECHCG,ECHCG (Barnyardgrass); rate 0.0313 kg/ha,3.0
same,Herbicidal rating ECHCG,ECHCG (Barnyardgrass); rate 0.0625 kg/ha,3.0
same,Preemergence herbicidal rating CASOB,CASOB (Sicklepod); 0.0156 kg/ha,0.0
same,Preemergence herbicidal rating CASOB,CASOB (Sicklepod); 0.0313 kg/ha,1.0
same,Preemergence herbicidal rating CASOB,CASOB (Sicklepod); 0.0625 kg/ha,3.0
same,Preemergence herbicidal rating CASOB,CASOB (Sicklepod); 0.1250 kg/ha,3.0
same,Preemergence herbicidal rating CASOB,CASOB (Sicklepod); 0.2500 kg/ha,7.0
same,Herbicidal rating ABUTH,ABUTH (Velvetleaf); rate 0.0156 kg/ha,9.0
same,Herbicidal rating ABUTH,ABUTH (Velvetleaf); rate 0.0313 kg/ha,9.0
same,Herbicidal rating ABUTH,ABUTH (Velvetleaf); rate 0.0625 kg/ha,9.0
"Cn1c(C(F)(F)F)cc(=O)n(-c2cc(N=C3SCC(=O)N3Cc3ccncc3)c(Cl)cc2F)c1=O [Compound 133, 3-{4-Chloro-2-fluoro-5-{[4-oxo-3-(4-pyridylmethyl)-2-thiazolidinylidene]amino}phenyl}-1-methyl-6-(trifluoromethyl)-2,4(1H,3H)-pyrimidinedione]","herbicidal effect rating, CYPSE",CYPSE (Flatsedge); 0.0313 kg/ha,0.0
same,"herbicidal effect rating, CYPSE",CYPSE (Flatsedge); 0.0625 kg/ha,0.0
same,"herbicidal effect rating, CYPSE",CYPSE (Flatsedge); 0.1250 kg/ha,0.0
same,"herbicidal effect rating, CYPSE",CYPSE (Flatsedge); 0.2500 kg/ha,1.0
same,Herbicidal rating AMBEL,"AMBEL (Ragweed, Common) [1]; rate 0.0156 kg/ha",9.0
same,Herbicidal rating AMBEL,"AMBEL (Ragweed, Common) [1]; rate 0.0313 kg/ha",6.0
same,Herbicidal rating AMBEL,"AMBEL (Ragweed, Common) [1]; rate 0.0625 kg/ha",9.0
same,Preemergence herbicidal rating AMBEL,"AMBEL (Ragweed, Common) [2]; [6]",0.0
same,Preemergence herbicidal rating AMBEL,"AMBEL (Ragweed, Common) [2]; [7]",0.0
same,Preemergence herbicidal rating AMBEL,"AMBEL (Ragweed, Common) [2]; [8]",0.0
same,Preemergence herbicidal rating AMBEL,"AMBEL (Ragweed, Common) [2]; [9]",1.0
same,Herbicidal rating ORYSAT,"ORYSAT (Rice, Tebonnet); rate 0.0156 kg/ha",2.5
same,Herbicidal rating ORYSAT,"ORYSAT (Rice, Tebonnet); rate 0.0313 kg/ha",2.5
same,Herbicidal rating ORYSAT,"ORYSAT (Rice, Tebonnet); rate 0.0625 kg/ha",3.0
same,Herbicidal rating ZEAMX,"ZEAMX (Corn, Field); rate 0.0156 kg/ha",4.0
same,Herbicidal rating ZEAMX,"ZEAMX (Corn, Field); rate 0.0313 kg/ha",4.0
same,Herbicidal rating ZEAMX,"ZEAMX (Corn, Field); rate 0.0625 kg/ha",4.0
same,Herbicidal rating CHEAL,[3]; rate 0.0156 kg/ha,9.0
same,Herbicidal rating CHEAL,[3]; rate 0.0313 kg/ha,6.0
same,Herbicidal rating CHEAL,[3]; rate 0.0625 kg/ha,9.0
same,Herbicidal rating GLXMAW,[4]; rate 0.0156 kg/ha,5.0
same,Herbicidal rating GLXMAW,[4]; rate 0.0313 kg/ha,5.0
same,Herbicidal rating GLXMAW,[4]; rate 0.0625 kg/ha,5.0
same,Preemergence herbicidal rating GALAP,GALAP (Galium); [6],0.0
same,Preemergence herbicidal rating GALAP,GALAP (Galium); [7],0.0
same,Preemergence herbicidal rating GALAP,GALAP (Galium); [8],0.0
same,Preemergence herbicidal rating GALAP,GALAP (Galium); [9],0.0
same,Preemergence herbicidal rating CHEAL,[5]; [6],9.0
same,Preemergence herbicidal rating CHEAL,[5]; [7],9.0
same,Preemergence herbicidal rating CHEAL,[5]; [8],9.0
same,Preemergence herbicidal rating CHEAL,[5]; [9],9.0
same,Herbicidal rating ECHCG,ECHCG (Barnyardgrass); rate 0.0156 kg/ha,1.0
same,Herbicidal rating ECHCG,ECHCG (Barnyardgrass); rate 0.0313 kg/ha,1.0
same,Herbicidal rating ECHCG,ECHCG (Barnyardgrass); rate 0.0625 kg/ha,1.0
same,Preemergence herbicidal rating CASOB,CASOB (Sicklepod); [6],0.0
same,Preemergence herbicidal rating CASOB,CASOB (Sicklepod); [7],0.0
same,Preemergence herbicidal rating CASOB,CASOB (Sicklepod); [8],0.0
same,Preemergence herbicidal rating CASOB,CASOB (Sicklepod); [9],9.0
same,Herbicidal rating ABUTH,ABUTH (Velvetleaf); rate 0.0156 kg/ha,9.0
same,Herbicidal rating ABUTH,ABUTH (Velvetleaf); rate 0.0313 kg/ha,9.0
same,Herbicidal rating ABUTH,ABUTH (Velvetleaf); rate 0.0625 kg/ha,9.0
